From patent US9353141B2, “Galectoside inhibitors of galectins” (GALECTO BIOTECH AB, priority 2012, dated 2016)
pKd: −log10 of the molar value. Like-named read-outs stand apart in the source and are kept apart here.

Experiments:
[1] = tested on: galectins; settings: all galectins; cited from earlier work
[2] = target: galectin-1 (Homo sapiens, UniProt P09382); test: Fluorescence polarization-based galectin inhibition assay; assay type: binding; settings: 20° C., read-out: Calculated Kd Galectin 1
Chain of galectin-1 (P09382 whole entry, species assumed): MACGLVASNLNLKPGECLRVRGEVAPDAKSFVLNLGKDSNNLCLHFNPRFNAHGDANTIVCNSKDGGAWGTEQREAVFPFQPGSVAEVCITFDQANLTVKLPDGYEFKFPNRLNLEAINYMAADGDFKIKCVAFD
Description: (§1) Identification of the substances was made by HRMS (Micromass Q-tof micro) and NMR (Bruker Ultrashield 400 plus, 400 MHz). Chemical shifts are reported downfield from Me4Si using residual […] (7.26 ppm) or CHD2OD (3.35 ppm) as reference. Chemical shifts and coupling constants were obtained from ^1H-NMR and proton resonances were assigned from COSY experiments. Purification was made by RF-HPLC (Beckman, system gold) or flash chromatography, using silica gel (Davisil 35-70 μm, 60 Å). Reactions were followed by TLC (Aluminum sheet, silica gel 60 F254) visualized with UV light, H2SO4 (aq) or an iso-vanillin/H2SO4/EtOH development solution. THF and Et2O were dried over sodium/benzophenone and distilled. CH2Cl2 was dried by molecular sieves (4 Å, 1.6 mm). Other solvents and reagents were commercially available and used without further purifications. Fluorescence polarization experiments were performed on a PolarStar instrument (BMG, Offenburg; Germany). Evaluation of 20-34 as inhibitors of galectins was performed by use of fluorescence polarization as described in the literature (Sorme et al., 2003a, 2004). Galectin concentrations and fluorescent probe choice and concentrations were as described in Cumpstey et al. 2005a, except for galectin-3 for which the probe tdga-probe described in Salomonsson et al. 2010 was used at 20 nM together with galectin-3 at 200 nM concentrations. Each inhibitor was tested in duplicate at several concentrations between 4 and 0.25 μM. All fluorescence polarization experiments were conducted at 20° C., except galectin-7 for which experiments were conducted at 0° C.

[3] = target: galectin-3 (Homo sapiens, UniProt P17931); test: as above; assay type: binding; settings: 20° C., tdga-probe 20 nM, galectin-3 200 nM, read-out: Calculated Kd Galectin 3
Chain of galectin-3 (P17931 whole entry, species assumed): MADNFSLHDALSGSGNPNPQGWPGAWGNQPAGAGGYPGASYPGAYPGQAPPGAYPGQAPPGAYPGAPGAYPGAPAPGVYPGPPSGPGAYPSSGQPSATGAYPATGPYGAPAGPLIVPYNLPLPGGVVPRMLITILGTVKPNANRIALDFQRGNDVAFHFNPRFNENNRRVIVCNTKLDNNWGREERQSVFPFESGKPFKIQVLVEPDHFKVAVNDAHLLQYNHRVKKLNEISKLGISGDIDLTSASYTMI
Description: as §1

[4] = target: T1, galectin-4 (C-terminal domain) (Homo sapiens, UniProt P56470); test: as above; assay type: binding; settings: 20° C., read-out: Calculated Kd Galectin 4 (C-terminal domain)
T1 sequence (P56470 194-323 limits assumed): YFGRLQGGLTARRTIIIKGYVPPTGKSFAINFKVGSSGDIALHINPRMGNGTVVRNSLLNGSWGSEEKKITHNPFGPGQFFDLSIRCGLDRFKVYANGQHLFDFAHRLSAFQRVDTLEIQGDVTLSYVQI
Description: as §1

[5] = target: T2, galectin-4 (N-terminal domain) (Homo sapiens, UniProt P56470); test: as above; assay type: binding
T2 sequence (P56470 19-150 limits assumed): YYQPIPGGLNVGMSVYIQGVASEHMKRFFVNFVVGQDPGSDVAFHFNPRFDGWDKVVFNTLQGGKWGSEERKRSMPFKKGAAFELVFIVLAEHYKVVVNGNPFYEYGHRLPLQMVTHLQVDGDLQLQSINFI
Description: as §1

[6] = target: galectin-7 (Homo sapiens, UniProt P47929); test: as above; assay type: binding; settings: 0° C., read-out: Calculated Kd Galectin 7
Chain of galectin-7 (P47929 whole entry, species assumed): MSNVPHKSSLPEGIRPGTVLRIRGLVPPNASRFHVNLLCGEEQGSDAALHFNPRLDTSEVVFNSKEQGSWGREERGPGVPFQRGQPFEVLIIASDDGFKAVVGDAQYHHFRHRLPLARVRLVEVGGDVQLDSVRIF
Description: as §1

[7] = target: T3, galectin-8 (N-terminal domain) (Homo sapiens, UniProt O00214); test: as above; assay type: binding; settings: 20° C., read-out: Calculated Kd Galectin 8 (N-terminal domain)
T3 sequence (O00214 19-152 limits assumed): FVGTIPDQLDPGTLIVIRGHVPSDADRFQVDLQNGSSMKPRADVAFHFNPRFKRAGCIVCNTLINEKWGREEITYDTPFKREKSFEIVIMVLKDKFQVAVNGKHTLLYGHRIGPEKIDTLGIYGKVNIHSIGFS
Description: as §1

[8] = target: galectin-9 (C-terminal domain) (Homo sapiens, UniProt O00182); test: as above; assay type: binding; settings: 20° C., read-out: Calculated Kd Galectin 9 (C-terminal domain)
Chain of galectin-9 (C-terminal domain) (O00182 227-355 limits assumed, species assumed): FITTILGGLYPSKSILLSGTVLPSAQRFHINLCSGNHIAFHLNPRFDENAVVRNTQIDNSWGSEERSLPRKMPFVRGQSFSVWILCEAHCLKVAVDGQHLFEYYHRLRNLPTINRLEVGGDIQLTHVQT
Description: as §1

[9] = target: galectin-9 (N-terminal domain) (Homo sapiens, UniProt O00182); test: as above; assay type: binding; settings: 20° C., read-out: Calculated Kd Galectin 9 (N-terminal domain)
Chain of galectin-9 (N-terminal domain) (O00182 17-148 limits assumed, species assumed): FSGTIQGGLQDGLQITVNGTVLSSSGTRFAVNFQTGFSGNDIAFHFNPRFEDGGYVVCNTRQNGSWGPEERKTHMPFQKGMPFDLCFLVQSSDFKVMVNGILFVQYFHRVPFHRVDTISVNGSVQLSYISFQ
Description: as §1

Row | Structure (SMILES) | affinity compared with lactose [1] | pKd [2] | pKd [3] | pKd [4] | pKd ([5]; fluorescence polarization, 20° C., read-out: Calculated Kd Galectin 4 (N-terminal domain)) | pKd [6] | pKd [7] | pKd [8] | pKd [9] | pKd [5] | pKd [1]
1 | O=C[C@H](O)[C@@H](O)[C@@H](O)[C@H](O)CO [D-galactose] | 50-100 times lower | – | – | – | – | – | – | – | – | – | –
2 | COc1ccc2cc(CO[C@H]3[C@@H](O)[C@@H](CO)O[C@@H](S[C@@H]4O[C@H](CO)[C@H](O)[C@H](OCc5cc6ccc(OC)cc6oc5=O)[C@H]4O)[C@@H]3O)c(=O)oc2c1 [Compound 22, bis-{3-O-[(7-methoxy-2H-1-benzopyran-2-on-3-yl)-methyl]-β-D-galactopyranosyl}sulfane] | – | 5.00 | 6.05 | < 3.30 | 3.89 | 4.43 | 4.07 | ~5.40 | 4.89 | – | –
3 | O=c1oc2ccccc2cc1CO[C@H]1[C@@H](O)[C@@H](CO)O[C@@H](S[C@@H]2O[C@H](CO)[C@H](O)[C@H](OCc3cc4ccccc4oc3=O)[C@H]2O)[C@@H]1O [Compound 20, bis-{3-O-[(2H-1-benzopyran-2-on-3-yl)-methyl]-β-D-galactopyranosyl}sulfane] | – | 4.81 | 6.60 | 3.81 | – | 5.41 | 4.96 | 5.62 | 5.77 | 4.31 | –
4 | OC[C@H]1O[C@@H](O[C@H]2[C@H](O)[C@@H](O)C(O)O[C@@H]2CO)[C@H](O)[C@@H](O)[C@H]1O (stereo partly drawn) [lactose] | – | – | – | – | – | – | – | – | – | – | 3.00 to 3.30
